Measurements taken from the NIST ThermoML archive (doi:10.1016/j.fluid.2015.07.030).

Assay: refractive index (other wavelength) (dimensionless); xn = mol fraction of the nth substance listed
Conditions: 293.15 K, 95.99 kPa, Liquid, Standard Abbe refractometry

OCCOCCOCCO [triethylene glycol] + O
refractive index
Conditions	Wavelength=404.7 nm	Wavelength=435.8 nm	Wavelength=486.1 nm	Wavelength=546.1 nm	Wavelength=587.6 nm	Wavelength=589.3 nm
x2 = 0	1.46928	1.46569	1.46151	1.45803	1.45619	1.45612
x2 = 0.1056	1.46776	1.46418	1.46003	1.45656	1.45474	1.45467
x2 = 0.2069	1.46585	1.46229	1.45817	1.45473	1.45293	1.45286
x2 = 0.3104	1.46244	1.45892	1.45478	1.45137	1.44957	1.4495
x2 = 0.4844	1.45861	1.45514	1.45102	1.44764	1.44586	1.4458
x2 = 0.5016	1.45756	1.45412	1.45	1.44663	1.44485	1.44479
x2 = 0.5952	1.45069	1.44731	1.44328	1.43997	1.4382	1.43814
x2 = 0.6016	1.45072	1.44734	1.44332	1.44002	1.43827	1.43821
x2 = 0.6788	1.44395	1.4406	1.4367	1.43344	1.43171	1.43165
x2 = 0.7835	1.4342	1.43091	1.42716	1.42397	1.4223	1.42224
x2 = 0.8184	1.42884	1.42558	1.42185	1.41872	1.41706	1.417
x2 = 0.8473	1.42267	1.41949	1.41582	1.41276	1.41114	1.41108
x2 = 0.8719	1.41529	1.41214	1.40852	1.40547	1.40386	1.4038
x2 = 0.8926	1.40703	1.40391	1.40033	1.39734	1.39576	1.3957
x2 = 0.9106	1.40148	1.39844	1.39495	1.392	1.39044	–
x2 = 0.9254	1.39081	1.38783	1.38446	1.38156	1.38004	–
x2 = 0.9303	1.39206	1.38905	1.38562	1.38273	1.3812	–
x2 = 0.9391	1.38808	1.38514	1.38176	1.37891	1.37736	–
x2 = 0.951	1.38101	1.37811	1.37479	1.37198	1.37045	–
x2 = 0.9599	1.37477	1.37194	1.36866	1.36589	1.36436	–
x2 = 0.9708	1.36673	1.36396	1.36077	1.35803	1.35657	–
x2 = 0.979	1.36151	1.35879	1.35566	1.35294	1.35147	–
x2 = 0.9867	1.35527	1.35259	1.34949	1.34676	1.34532	–
x2 = 0.9936	1.34883	1.34624	1.34314	1.34052	1.33907	–
